Here are results for 1 molecule from paper PMC4883017 (Molecular pharmaceutics, 2015).

The subject of data set [1] is HIV-1ADA. Description: Reverse transcriptase inhibition in HIV-1 infected MDM. In kind it is cell-based. The note with it: total NRTI concentration 4 μg/mL, Day 10.
The conditions of data set [2]: cited from earlier work.
Data set [3] can be described thus: Pharmacokinetics after i.v. injection. The conditions noted are these: plasma, Balb/c mice, means ± SD. Type of data set: in vivo.
The test system of the next data set is HepG2 cells. The conditions noted are these: human, 10 days, 30 μg/mL.
Data set [4] has as its system HIV-1ADA. Description: Antiviral activity in vivo, humanized PBL-NSG mouse model of HIV-1 infection. More on the design: species or system hu-PBL NSG mice. The conditions noted are these: three i.v. injections over 15 days, Day 15.

Molecules are shown by their SMILES.

`Cc1cn([C@H]2C[C@H](N=[N+]=[N-])[C@@H](CO)O2)c(=O)[nH]c1=O` [AZT, Zidovudine]: the “10-fold virus inhibition in the infected MDM at fixed concentration” value in the data set on HIV-1ADA [1] is reported as “achieved only after the treatment with nanodrugs”. The “Administered drug removed with urine” value in data set [2] is on record as “more than 90%”. For the same molecule, in data set [3], the “AUC 0-τ” value amounted to 22896 ± 85 ng·h/mL, the “AUC 0-∞” value is 88404 ± 786 ng·h/mL and the CL is 3.81 ± 0.17 mL/h. The “Drop of the mtDNA amount” value with HepG2 cells stood at 60%. For the same molecule, in the data set with HIV-1ADA [4], the “Reduction of the virus level per lymphocyte (p24/CD45)” value was “three-fold reduction”.
